Results taken from patent publication US6541467B1, “Thrombin inhibitors having a lactam at P3” (Corvas International, Inc., priority 2000, dated 2003).

Legend:
Format in all cases: biochemical
[1] = target: T1, human plasmin (Homo sapiens, UniProt P00747); assay: Plasmin chromogenic enzyme assay
T1 construct: Purified human plasmin; purchased Enzyme Research Laboratories, Inc
Protocol: (§1) The ability of compounds of the present invention to act as a selective inhibitor of thrombin activity was assessed by determining the concentration of test-compound which inhibited the activity of this enzyme by 50%, (IC50), and comparing this value to that determined for all or some of the following related serine proteases: recombinant tissue plasminogen activator (rt-PA), plasmin, activated protein C, chymotrypsin, factor Xa and trypsin.
(§2) The buffer used for all assays was HBSA (10 mM HEPES, pH 7.5, 150 mM sodium chloride, 0.1% bovine serum albumin).
(§3) The assay for IC50 determinations was conducted by combining in appropriate wells of a Corning microtiter plate, 50 microliters of HBSA, 50 microliters of the test compound at a specified concentration (covering a broad concentration range) diluted in HBSA (or HBSA alone for V0 (uninhibited velocity) measurement), and 50 microliters of the enzyme diluted in HBSA. Following a 30 minute incubation at ambient temperature, 50 microliters of the substrate at the concentrations specified below were added to the wells, yielding a final total volume of 200 microliters. The initial velocity of chromogenic substrate hydrolysis was measured by the change in absorbance at 405 nm using a Thermo Max® Kinetic Microplate Reader over a 5 minute period in which less than 5% of the added substrate was utilized. The concentration of added inhibitor which caused a 50% decrease in the initial rate of hydrolysis was defined as the IC50 value.
Plasmin catalytic activity was determined using the chromogenic substrate, S-2366 [L-pyroglutamyl-L-prolyl-L-arginine-p-nitroaniline hydrochloride], which was obtained from DiaPharma group. The substrate was made up in deionized water followed by dilution in HBSA prior to the assay in which the final concentration was 300 micromolar (about 2:.5-times Km). Purified human plasmin was obtained from Enzyme Research Laboratories, Inc. The enzyme was diluted into HBSA prior to assay in which the final concentration was 1.0 nM.

[2] = target: T2, Factor Xa (Homo sapiens, UniProt P00742); assay: Factor Xa chromogenic enzyme assay; conditions: read-out: fXa IC50
T2 construct: purchased Enzyme Research Laboratories, Inc. (South Bend, Ind.)
Protocol: as §1, §2, §3
Factor Xa catalytic activity was determined using the chromogenic substrate S-2765 (N-benzyloxycarbonyl-D-arginine-L-glycine-L-arginine-p-nitroaniline), obtained from DiaPharma Group (Franklin, Ohio). All substrates were reconstituted in deionized water prior to use. […] Purified human Factor X was obtained from Enzyme Research Laboratories, Inc. (South Bend, Ind.) and Factor Xa (FXa) was activated and prepared from it as described [Bock, P. E., Craig, P. A., Olson, S. T., and Singh, P. Arch. Biochem. Biophys. 273:375-388 (1989)]. The enzyme was diluted into HBSA prior to assay in which the final concentration was 0.25 nM.

[3] = target: T3, human α-thrombin (Homo sapiens, UniProt P00734); assay: Thrombin (fIIa) chromogenic enzyme assay; conditions: for IC50: 0 min
T3 construct: Purified human α-thrombin; purchased Enzyme Research Laboratories, Inc
Protocol: For screening compounds using these assays, the compounds of the present invention are dissolved in buffer to give solutions containing concentrations such that assay concentrations range from 0 to 100 micromolar. In the assays for thrombin, plasmin, t-PA, aPC, chymotrypsin, and trypsin, a chromogenic synthetic substrate is added to a solution containing test compound and the enzyme of interest and the residual catalytic activity of that enzyme is determined spectrophometrically. The IC50 of a compound of the present invention is determined from the rate of substrate turnover caused by the specific enzyme being measured. IC50 is the concentration of test compound which gives 50% inhibition of the rate of substrate turnover. Likewise, the Ki of a compound of the present invention is determined from the rate of substrate turnover caused by the specific enzyme being measured at various […] concentrations. Example A provides exemplars of in vitro assays used to select the compounds of the present invention.
as §1, §2
as §3, with “Following a 30 minute incubation at ambient temperature, 50 microliters of the substrate at the concentrations specified below were added to the wells, yielding a final total volume of 200 microliters.” left out
Enzyme activity was determined using the chromogenic substrate, Pefachrome t-PA (CH3SO2-D-hexahydrotyrosine-glycyl-L-Arginine-p-nitroaniline, obtained from Pentapharm Ltd.). The substrate was reconstituted in deionized water prior to use. Purified human α-thrombin was obtained from Enzyme Research Laboratories, Inc. The buffer used for all assays was HBSA (10 mM HEPES, pH 7.5, 150 mM sodium chloride, 0.1% bovine serum albumin).
The initial velocity of Pefachrome t-PA hydrolysis was measured by the change in absorbance at 405 nm using a Thermo Max® Kinetic Microplate Reader over a 5 minute period in which less than 5% of the added substrate was utilized. The concentration of:added inhibitor which caused a 50% decrease in the initial rate of hydrolysis was defined as the IC50 value.

[4] = target: T4, bovine pancreatic trypsin (Bos taurus, UniProt P00760); assay: Trypsin chromogenic enzyme assay
T4 sequence (P00760 24-246): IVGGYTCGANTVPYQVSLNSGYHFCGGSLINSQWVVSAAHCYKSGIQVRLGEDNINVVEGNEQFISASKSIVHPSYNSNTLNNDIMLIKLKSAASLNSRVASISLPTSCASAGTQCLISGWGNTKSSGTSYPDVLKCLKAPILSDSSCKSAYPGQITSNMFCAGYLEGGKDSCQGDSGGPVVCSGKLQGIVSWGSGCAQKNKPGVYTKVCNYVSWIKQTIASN
Protocol: as §1, §2, §3
Trypsin catalytic activity was determined using the chromogenic substrate, S-2222 (benzoyl-L-isoleucine-L-glutamic acid-[gamma-methyl ester]-L-arginine-p-nitroanilide), which was obtained from DiaPharma Group. […] Purified (3×-crystallized; TRL3) bovine pancreatic trypsin was obtained from Worthington Biochemical Corp. The enzyme was reconstituted in deionized water and diluted into HBSA prior to assay in which the final concentration was 0.5 nM.

T2 sequence (P00742 235-488 limits assumed): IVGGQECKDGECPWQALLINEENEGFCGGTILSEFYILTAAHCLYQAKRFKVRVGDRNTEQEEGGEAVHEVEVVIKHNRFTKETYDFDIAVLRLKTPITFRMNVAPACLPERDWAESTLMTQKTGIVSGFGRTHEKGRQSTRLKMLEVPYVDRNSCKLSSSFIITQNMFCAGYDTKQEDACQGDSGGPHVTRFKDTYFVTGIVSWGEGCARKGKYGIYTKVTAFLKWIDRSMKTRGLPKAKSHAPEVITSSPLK
T2 sequence (P00742 41-179 partner limits assumed): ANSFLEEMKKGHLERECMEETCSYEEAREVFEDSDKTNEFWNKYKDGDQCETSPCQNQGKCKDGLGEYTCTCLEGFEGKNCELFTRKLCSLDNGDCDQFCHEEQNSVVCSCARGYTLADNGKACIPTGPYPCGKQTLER
T1 sequence (P00747 581-810 limits assumed): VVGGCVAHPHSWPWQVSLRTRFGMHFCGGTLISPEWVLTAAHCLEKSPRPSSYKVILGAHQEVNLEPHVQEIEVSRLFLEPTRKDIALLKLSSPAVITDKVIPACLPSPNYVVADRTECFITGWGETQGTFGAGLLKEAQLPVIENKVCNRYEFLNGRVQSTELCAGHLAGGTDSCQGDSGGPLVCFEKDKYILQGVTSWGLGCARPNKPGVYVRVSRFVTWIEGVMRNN
T1 sequence (P00747 97-580 partner limits assumed): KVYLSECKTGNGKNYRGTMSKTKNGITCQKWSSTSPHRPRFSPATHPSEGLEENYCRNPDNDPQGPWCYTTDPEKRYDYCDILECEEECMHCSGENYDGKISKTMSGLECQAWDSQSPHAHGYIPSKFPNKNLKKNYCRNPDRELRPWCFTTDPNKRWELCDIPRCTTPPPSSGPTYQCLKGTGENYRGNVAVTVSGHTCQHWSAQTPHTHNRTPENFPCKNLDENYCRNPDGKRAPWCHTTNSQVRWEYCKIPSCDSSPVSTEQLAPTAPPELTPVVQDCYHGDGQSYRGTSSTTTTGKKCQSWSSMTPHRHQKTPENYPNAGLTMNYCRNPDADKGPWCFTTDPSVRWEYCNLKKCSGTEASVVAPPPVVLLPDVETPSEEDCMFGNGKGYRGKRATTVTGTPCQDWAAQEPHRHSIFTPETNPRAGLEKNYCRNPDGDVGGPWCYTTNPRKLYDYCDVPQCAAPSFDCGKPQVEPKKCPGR

| SMILES | IC50 [1] [µM] | IC50 [2] [µM] | Ki [3] [µM] | IC50 [3] [µM] | IC50 [4] [µM] |
| --- | --- | --- | --- | --- | --- |
| N=C(N)c1ccc(CNC(=O)CN2CCCC[C@H](NS(=O)(=O)c3ccc4c(c3)CCO4)C2=O)s1 [Example 24, 3-(S)-(2,3-Dihydrobenzo[b]furanyl-5-sulfonyl)amino-1-(2-amindino-5-methylenecarboxamidomethylthiophenyl)-4,5,6,7-tetrahydroazepin-2-one] | ≥ 2.5 | 0.3 to 2.5 | ≤ 0.1 | ≤ 0.1 | 0.1 to 0.3 |
| Cc1nc(N)ccc1CNC(=O)CN1CCCC[C@H](NS(=O)(=O)c2ccc3c(c2)CCO3)C1=O [Example 35, 3-(S)-(2,3-Dihydrobenzo[b]furanyl-5-sulfonyl)amino-1-(2-amino-6-methyl-5-methylenecarboxamidomethylpyridinyl)-4,5,6,7-tetrahydroazepin-2-one] | ≥ 2.5 | ≥ 2.5 | ≤ 0.1 | 0.1 to 0.3 | ≥ 2.5 |
| N=C(N)N1CCC(CNC(=O)CN2CCCC[C@H](NS(=O)(=O)c3ccc4c(c3)CCO4)C2=O)CC1 [Example 36, 3-(S)-(2,3-Dihydrobenzo[b]furanyl-5-sulfonyl)amino-1-(1-amidino-4-methylenecarboxamidomethylperidinyl)-4,5,6,7-tetrahydroazepin-2-one] | ≥ 2.5 | ≥ 2.5 | ≤ 0.1 | 0.1 to 0.3 | ≥ 2.5 |
| N/C(=N\O)c1ccc(CNC(=O)CN2CCCC[C@H](NS(=O)(=O)c3ccc4c(c3)CCO4)C2=O)cc1 [Example 37] | ≥ 2.5 | ≥ 2.5 | 0.1 to 0.3 | 0.3 to 2.5 | 0.3 to 2.5 |
| N=C(N)c1ccc(CNC(=O)CN2CCCC[C@H](NS(=O)(=O)c3ccc4c(c3)CCO4)C2=O)cc1 [Example 38] | ≥ 2.5 | ≥ 2.5 | ≤ 0.1 | ≤ 0.1 | ≤ 0.1 |
| N=C(N)c1ccc(CNC(=O)CN2CCCC[C@H](NS(=O)(=O)c3ccc4c(c3)CCO4)C2=O)c(F)c1 [Example 39] | ≥ 2.5 | ≥ 2.5 | ≤ 0.1 | 0.1 to 0.3 | 0.1 to 0.3 |
| N=C(N)N1CCC(CNC(=O)CN2CCCC[C@H](NS(=O)(=O)c3ccc4ccccc4c3)C2=O)CC1 [Example 40] | ≥ 2.5 | ≥ 2.5 | ≥ 2.5 | ≥ 2.5 | ≥ 2.5 |
| N=C(N)N1CCC(CNC(=O)CN2CCCC[C@H](NS(=O)(=O)c3ccccc3)C2=O)CC1 [Example 41, 3-(Benzenesulfonyl)amino-1-(1-amidino-4-methylenecarboxamido-methylpiperidinyl)-4,5,6,7-tetrahydroazepin-2-one] | ≥ 2.5 | ≥ 2.5 | ≤ 0.1 | 0.3 to 2.5 | ≥ 2.5 |
| COc1ccc(OC)c(S(=O)(=O)N[C@H]2CCCCN(CC(=O)NCC3CCN(C(=N)N)CC3)C2=O)c1 [Example 42] | ≥ 2.5 | ≥ 2.5 | 0.1 to 0.3 | 0.3 to 2.5 | ≥ 2.5 |
| COc1ccc(S(=O)(=O)N[C@H]2CCCCN(CC(=O)NCC3CCN(C(=N)N)CC3)C2=O)cc1OC [Example 43] | ≥ 2.5 | ≥ 2.5 | ≤ 0.1 | 0.3 to 2.5 | ≥ 2.5 |
| N=C(N)c1ccc(CNC(=O)CN2CCCC[C@H](NS(=O)(=O)c3ccc4ccccc4c3)C2=O)cc1 [Example 44] | ≥ 2.5 | ≥ 2.5 | 0.1 to 0.3 | 0.3 to 2.5 | 0.1 to 0.3 |
| N=C(N)c1ccc(CNC(=O)CN2CCCC[C@H](NS(=O)(=O)c3ccccc3)C2=O)cc1 [Example 45] | ≥ 2.5 | ≥ 2.5 | ≤ 0.1 | 0.1 to 0.3 | 0.1 to 0.3 |
| COc1ccc(OC)c(S(=O)(=O)N[C@H]2CCCCN(CC(=O)NCc3ccc(C(=N)N)cc3)C2=O)c1 [Example 46] | ≥ 2.5 | ≥ 2.5 | ≤ 0.1 | ≤ 0.1 | ≥ 2.5 |
| COc1ccc(S(=O)(=O)N[C@H]2CCCCN(CC(=O)NCc3ccc(C(=N)N)cc3)C2=O)cc1OC [Example 47] | ≥ 2.5 | ≥ 2.5 | ≤ 0.1 | ≤ 0.1 | 0.1 to 0.3 |
| N[C@H]1CC[C@H](CNC(=O)CN2CCCC[C@H](NS(=O)(=O)c3ccc4c(c3)CCO4)C2=O)CC1 [Example 48] | ≥ 2.5 | ≥ 2.5 | ≤ 0.1 | 0.3 to 2.5 | ≥ 2.5 |
| O=C(CN1CCCC[C@H](NS(=O)(=O)c2ccc3c(c2)CCO3)C1=O)NCc1ccc2[nH]ncc2c1 [Example 49] | ≥ 2.5 | ≥ 2.5 | 0.1 to 0.3 | 0.3 to 2.5 | ≥ 2.5 |
| N/C(=N\O)c1ccc(CNC(=O)CN2C(=O)[C@@H](NS(=O)(=O)c3ccc4c(c3)CCO4)CCc3ccccc32)cc1 [Example 54, 3-(S)-(2,3-Dihydrobenzo[b]furanyl-5-sulfonyl)amino-1-(4-hydroxyamidinylbenzylmethylenecarboxamido)-4,5-dihydrobenzo[f]azepin-2-one] | ≥ 2.5 | ≥ 2.5 | 0.3 to 2.5 | ≥ 2.5 | ≥ 2.5 |
| N=C(N)c1ccc(CNC(=O)CN2C(=O)[C@@H](NS(=O)(=O)c3ccc4c(c3)CCO4)CCc3ccccc32)cc1 [Example 55, 3-(S)-(2,3-Dihydrobenzo[b]furanyl-5-sulfonyl)amino-1-(4-amidinylphenylmethylenecarboxamido)-4,5-dihydrobenzo[f]azepin-2-one] | ≥ 2.5 | ≥ 2.5 | ≤ 0.1 | ≤ 0.1 | 0.3 to 2.5 |
| N=C(N)N1CCC(CNC(=O)CN2C(=O)[C@@H](NS(=O)(=O)c3ccc4c(c3)CCO4)CCc3ccccc32)CC1 [Example 56, 3-(S)-(2,3-Dihydrobenzo[b]furanyl-5-sulfonyl)amino-1-(1-amidino-4-methylenecarboxamidomethylpiperidyl)-4,5-dihydrobenzo[f]azepin-2-one] | ≥ 2.5 | ≥ 2.5 | ≤ 0.1 | 0.3 to 2.5 | ≥ 2.5 |
